We go through four compounds from patent US8349792B2, “Combination comprising CNDAC (2′-cyano-2′-deoxy-N4-palmitoyl-1-beta-D-arabinofuranosyl-cytosine) and a cytotoxic agent” (priority 2006, dated 2013).

For data set [1], the system named is Hut78 cells. Nature of the data set: Western blotting analysis in Hut78 cells. In kind it is cell-based. The settings on record: 1×IC50, western blot. Here is the method:
Protein lysates were generated from 10 cm plates that were seeded at approximately 5×10^5 cells/well, in medium containing 10% FCS. […] Cells were collected by centrifugation (5 min×2,000 g), washed once with ice-cold buffer A (50 mM HEPES, pH 7.0, 20 mM NaCl, 1 mM DTT, protease inhibitors, 10 mM Sodium pyrophosphate, 10 mM Sodium Fluoride and 1 mM Sodium Orthovanadate), and resuspended in 0.3 ml of the same buffer. Cells were lysed by sonication (2×3 s bursts with probe sonicator), and the protein concentration of each tube determined using the BCA assay. Lysates (20-30 μg protein loaded/well) were resolved on Bis-Tris gels containing 10 or 12% acrylamide and transferred to nitrocellulose for analysis by western blotting. Membranes were blocked for 1 h at room temperature in PBS containing 0.02% (v/v) Tween 20 and 5% (w/v) fat-free dried milk. Antibody incubations were carried out overnight at 2-8° C. in PBS containing 0.02% (v/v) Tween 20 (PBST) containing 3% (w/v) dried milk. Nitrocellulose membranes were probed with the following antibodies:
Membranes were then washed three times in PBST, and then incubated for 1 h with the appropriate horseradish peroxidase-conjugated secondary antibody (Perbio) at 1:5,000 dilution. Finally, the membranes were washed three times in PBST prior to development using an enhanced chemiluminescence kit (Amersham Corporation, Buckinghamshire, U.K.) or the Millipore Immobilon HRP substrate.
Cells were harvested and the resulting cell lysates analysed by western blotting with the indicated antibodies. Data are representative of two independent experiments (FIG. 5). […] Homologous recombination is one of the major repair pathways for double strand DNA breaks, and RAD51 plays a key role in homologous recombination.
A general note: A western blot detects proteins with antibodies after separation by electrophoresis.

The test system of data set [2] is Hut78 cells. The experiment in a line: Flow cytometry, Annexin V staining. In kind it is cell-based. Particulars: IC50, 24 h, 48 h or 72 h. As to the method: (§1) Hut78 cells were seeded in 10 cm plates at approximately 5×10^5 cells/plate and left to settle for 2 h. […] After treatment, cells were harvested and cell cycle analysis was carried our. Cells were pelleted by centrifugation, washed twice in PBS and then fixed overnight in 70% (v/v) ethanol at −20° C. Cells were stained with 50 μg/ml propidium iodide for 20 min and the DNA content analysed on the flow cytometer. Annexin V staining was performed as indicated in manufacturer's instructions, on live, non-fixed cells.
Cells were then harvested, stained with annexin V and analysed on the flow cytometer. Data are representative of two independent experiments. Annexin V labels live cells that are undergoing apoptosis or already dead. […] The synergy detected in the calcusyn analysis (Table 1) is therefore likely to be mainly due to inhibition of cell proliferation.
Background: A flow cytometer gives signals particle by particle.

The test system of data set [3] is Hut78 cells. The experiment in a line: 72 h IC50 by Alamar blue assay in Hut78. In kind it is cell-based. The settings on record: read-out: 1×IC50 value in Hut78 cells. As to the method:
Experiments were carried out in 96-well plates and the cell lines seeded at a density of 2500/well for H1299, 2500/well or 3000/well for H460, 5000/well for HL-60 cells, and 8,000 cells/well for Hut78, MV4-11 and PL-21 cells. […] Each compound was then tested in combination with CNDAC using three different treatment regimes: concomitant, CNDAC pre-treatment followed by HDAC inhibitor/topoisomerase inhibitor and CNDAC treatment after pre-treatment with HDAC inhibitor/topoisomerase inhibitor.

Data set [4] has as its system Hut78 cells. The experiment in a line: Flow cytometry, propidium iodide DNA content (sub-G1). In kind it is cell-based. The settings on record: for sub-G1 cells, dose dependence: 0.5×-2×IC50, 72 h; for sub-G1 cells, time dependence: 1×IC50, 16, 24, 48 or 72 h. Here is the method: as §1
After drug treatment, cells were then harvested, stained with propidium iodide and their DNA content analysed by flow cytometry.
After treatment, cells were then harvested, stained with propidium iodide and their DNA content analysed by flow cytometry.

A further data set has as its system H358 cells. Nature of the data set: H358 xenograft tumour growth. In kind it is in vivo, mice (nu/nu). Particulars: for mean tumour volume: day 22, sapacitabine 15 mg/kg oral, irinotecan 50 mg/kg i.p. weekly, SAHA 50 mg/kg oral. Here is the method:
Female mice (nu/nu) were obtained from Harlan. Animals were injected subcutaneously with ˜1×10^7 H358 cells/mouse at a single site on their flanks. Tumours were allowed to grow to ˜127 mm^3 before being pair-matched by tumour size into treatment groups (10 mice/group). One group was treated with sapacitabine (15 mg/kg) once daily by oral gavage for five consecutive days followed by a two day break; the treatment was then repeated for a total of three cycles. Irinotecan (50 mg/kg) was treated once weekly by intraperitoneal injection for three weeks. […] Mice were weighed at least twice a week to assess toxicity of the treatments and the tumours were measured with calipers at least twice a week to determine tumour growth. The tumour measurements were converted into volumes using the formula: tumour volume (mm^3)=width^2 (mm)×length (mm)×0.52. The percent tumour growth inhibition was determined with the formula: 1−(Change in treated tumour volume/change in control tumour volume)×100%. Statistical significance was determined using a two sided unpaired Student's T-test.

For a further data set, the system named is p388 mouse leukaemia. Nature of the data set: p388 mouse leukaemia xenograft, survival. The format is in vivo. The settings on record: P388 mouse model; CYC682 20 mg/kg PO QD×5×2, SAHA 75 mg/kg IP QD×12; compared to vehicle control. An excerpt: The p388 mouse leukaemia xenograft assesses drug combinations by the survival times of the mice in the various treatment arms.

For data set [5] the following is noted: human, in vivo; cited from earlier work.
A further data set concerns colon cancer. The settings on record: model of colon cancer, cited from earlier work.

`N#C[C@H]1[C@H](O)[C@@H](CO)O[C@H]1n1ccc(N)nc1=O` [CNDAC, 1-(2-C-cyano-2-deoxy-β-D-arabino-pentafuranosyl)-cytosine]: in the data set with Hut78 cells [1], the “H2A.X phosphorylation at serine 139” value is “increase in H2A.X phosphorylation at serine 139” and the Mcl-1 result is recorded as “decrease in Mcl-1”. In the data set with Hut78 cells [2], the “apoptotic/dead cells (annexin V)” value is given as “time-dependent increase in apoptotic/dead cells”. Also, the IC50 with Hut78 cells [3] worked out at 0.36 µM. Moreover, in the data set on Hut78 cells [4], the “sub-G1 cells, dose dependence” value is “dose-dependent increase in sub-G1 cells” and the “sub-G1 cells, time dependence” value was “time-dependent increase in sub-G1 cells that became apparent by 48 h treatment”. For the same compound, in the data set on Hut78 cells [4] (1×IC50, by 72 h), the “sub-G1 cells, share of the cell population” value is recorded as roughly 30%.

On to `O=C(CCCCCCC(=O)Nc1ccccc1)NO` [SAHA, suberoylanilide hydramic acid, reference compound], for which the “Acetyl-histone H4” value in the data set with Hut78 cells [1] was “increase in Acetyl-histone H4”. In addition, the “apoptotic/dead cells (annexin V)” value with Hut78 cells [2] was “negligible increase in dead/dying cells”. The “effect on tumour growth (in words)” value with H358 cells (day 22) is recorded as “no effect on tumour growth”. In the data set on H358 cells, the mean tumour volume is 517 mm^3. The survival entry in the data set with p388 mouse leukaemia was “very little effect on survival”. In addition, in the data set on Hut78 cells [4], the “sub-G1 cells, dose dependence” value was “little effect on the cell cycle, except at 2×IC50, where it induced a small increase in sub-G1 cells” and the “sub-G1 cells, time dependence” value is on record as “small increase in sub-G1 cells”.

As to `CCc1c2c(nc3ccc(OC(=O)N4CCC(N5CCCCC5)CC4)cc13)-c1cc3c(c(=O)n1C2)COC(=O)[C@]3(O)CC` [irinotecan], the “tumour growth inhibition (% TGI)” value in the data set on H358 cells (day 22) is on record as roughly 75%.

For the compound `CCCCCCCCCCCCCCCC(=O)Nc1ccn([C@@H]2O[C@H](CO)[C@@H](O)[C@@H]2C#N)c(=O)n1` [sapacitabine, 2′-cyano-2′-deoxy-N^4-palmitoyl-1-β-D-arabinofuranosylcytosine], the “tolerability, dose limiting toxicity” value in data set [5] is on record as “well tolerated in humans, with myelosuppression as the dose limiting toxicity”. For the same compound, the “tumour growth inhibition (% TGI)” value in the data set on H358 cells (day 22) was roughly 75%. The mean tumour volume in the data set with H358 cells came to 229 mm^3. In addition, in the data set with colon cancer, the anticancer activity result is “strong anticancer activity”. Besides, the “increasing survival and preventing the spread of colon cancer metastases to the liver” value with colon cancer (versus gemcitabine or 5-FU) was “superior to either gemcitabine or 5-FU”. In addition, the survival entry with p388 mouse leukaemia is listed as “significant increase in the survival time”.

Broadly, the IC50 is the concentration needed to halve the response being measured.
